Patent US20140309275A1, “Sphingosine Analogs, Compositions, and Methods Related Thereto” (Emory University, priority 2011, published 2014)
Where two headings read alike, the source gives them in different places.

Columns and labels:
[1] = Mouse tumor concentrations (human prostate cancer xenograft); type: in vivo, Nude mice; parameters: unit not given here; details: tumors harvested, LC/MS/MS
Excerpt: Nude mice were subjected to human prostate cancer xenograft procedures, and resulting tumors were allowed to grow for 16 days. […] Once the scheduled time course had passed, the mice were sacrificed. Tumors were harvested, homogenized, and analyzed by LC/MS/MS for tumor-drug concentration.

[2] = test system: P. falciparum chloroquine susceptible (CQ-S) D6 strain; assay: [3H]-labeled hypoxanthine uptake assay, P. falciparum D6; type: cell-based; details: Plasmodium falciparum, read-out: IC50 D6
Excerpt: (§1) The [^3H]-labeled hypoxanthine uptake method was utilized to assay the effectiveness of our sphingoid base analogs in vitro for their ability to inhibit the growth and replication of malaria parasites in RBCs. […] The simian malaria parasite P. knowlesi has also been recognized as a human pathogen of public health concern in South East Asia, and it can be cultured effectively in vitro. This species was therefore included to probe the potential of multi-species efficacy within this compound class.
(§2) Cryopreserved iRBCs were provided by Dr. John W. Barnwell from the Centers for Disease Control and Prevention and maintained in in vitro culture as described in Trager & Jensen, Science 1976, 193 (4254), 673-5.
(§3) Compounds in Table 1 were dissolved in 70% 200-proof pharmaceutical grade ethanol, and a working solution of 0.2 mg/mL was prepared using hypoxanthine- and gentamicin-free incomplete RPMI 1640 (Gibco). Compounds in Table 2 were dissolved in 200 proof pharmaceutical grade ethanol at a concentration of 50 μM and then conjugated to BSA (Sigma) as described.^5 A working solution of 0.2 mg/mL was prepared using hypoxanthine- and gentamicin-free incomplete RPMI 1640 (Gibco). Two compounds were tested per plate in triplicate starting at 0.2 mg/mL and diluted two-fold down to 0.019 μg/mL using hypoxanthine- and gentamicin-free RPMI.
(§4) Parasite inoculum was prepared by mixing parasitized blood, uninfected 0+RBCs (for P. falciparum strains) or rhesus RBCs (for P. knowlesi) and culture medium (deficient in hypoxanthine and gentamicin) to a final concentration of 1% parasitemia and 1% haematocrit. A negative control was prepared by diluting uninfected erythrocytes to 1% haematocrit in culture medium. [^3H]-labeled hypoxanthine was added at 24 h (for P. falciparum strains) or 12 h (P. knowlesi) and the culture was collected 48 h or 12 h later for P. falciparum or P. knowlesi, respectively. [^3H] uptake was measured by using a scintillation spectrophotometer (Wallac Oy 1450 MicroBeta reader).
(§5) Triplicate wells were used to calculate the IC50 for each compound using the software XLFit v5.2 using the sigmoidal model 601. Average and standard deviations were calculated using Microsoft Excel.

P. knowlesi H strain = assay: [3H]-labeled hypoxanthine uptake assay, P. knowlesi; type: cell-based; details: Plasmodium knowlesi; Table 1; compounds dissolved in 70% ethanol, not BSA-conjugated
Excerpt: as §1, with “class. The data were generated with the known antimalarial drugs chloroquine and mefloquine as controls.” for “class.”
The H strain of P. knowlesi has been adapted to in vitro culture using Macaca mulatta (rhesus monkey) RBCs essentially as described in Kocken et al., Infect Immun 2002, 70 (2), 655-60 (the media was supplemented with 10% human AB serum).
Chloroquine (Sigma) and mefloquine (Sigma) were used as controls. Compounds in Table 1 were dissolved in 70% 200-proof pharmaceutical grade ethanol, and a working solution of 0.2 mg/mL was prepared using hypoxanthine- and gentamicin-free incomplete RPMI 1640 (Gibco). Compounds in Table 2 were dissolved in 200 proof pharmaceutical grade ethanol at a concentration of 50 μM and then conjugated to BSA (Sigma) as described.^5 A working solution of 0.2 mg/mL was prepared using hypoxanthine- and gentamicin-free incomplete RPMI 1640 (Gibco). Two compounds were tested per plate in triplicate starting at 0.2 mg/mL and diluted two-fold down to 0.019 μg/mL using hypoxanthine- and gentamicin-free RPMI.
as §4, §5

[3] = Mouse PK studies (plasma and RBC levels); type: in vivo; details: mice; for PK dose proportionality / plasma half-lives: p.o. 10 or 30 mg/kg single dose
Experimental: Enigmol (E) or N-Methyl-enigmol (NME) were dissolved as 10× stocks in ethanol, then diluted 1:10 in olive oil the day before dosing; dosing solutions were stored at room temperature overnight. Male mice, CD-1 or Swiss Webster (20 to 30 g), were dosed p.o. at either 10 or 30 mg/kg and 5 ml/kg (n=3/time point). For single dose studies with E and NME, bloods were sampled at 0.5, 1, 2, 4, 6, 8, 16 & 24 hrs. For the 5 day repeat dose study with E, samples were taken on day 5 at 0 (trough) 0.5, 1, 2, 4, 6, 8 & 24 hrs. Blood (˜0.3 ml) was obtained either from the submandibular vein using a 4 mm Small Animal Lancet (MEDIpoint), or by retro-orbital bleeding into 200 uL glass micropipettes (Drummond) under isoflurane anesthesia. Each mouse was sampled once and blood transferred immediately to 0.5 ml K EDTA or Li heparin microtainers (BD) in ice water. Tubes were centrifuged at 2000×g for 10 min in a refrigerated centrifuge to separate plasma from RBCs. The plasma supernatants and RBC pellets (when taken) were transferred into separate 1.5 mL Eppendorf tubes in ice water, then frozen on dry ice and stored at −80° C. prior to analysis by LC/MS/MS. Mouse plasma determinations of Enigmol and N-methylenigmol were done using a bioanalytical assay method consisting of a protein precipitation sample preparation step followed by analysis on an AB SCIEX QTRAP® 5500 LC/MS/MS System. The method employed an internal standard (ISTD) spiking technique with D17:0 sphinganine as the ISTD. The lower limit of quantitation (LLOQ) for the assay method was 10 ng/mL and the upper limit of quantitation (ULOQ) for the assay method was 1,000 ng/mL for both Enigmol and N-methylenigmol. Each bioanalytical run consisted of eight matrixes (mouse plasma) spiked calibration standards and six matrixes spiked quality control (QC) samples at three levels (30 ng/mL, 500 ng/mL, and 900 ng/mL) in duplicate along with unknown mouse study samples. […] Estimates of pharmacokinetic parameters from the single dose (10 mg/kg and 30 mg/kg PO) mouse studies were determined using WinNonlin® (Pharsight, Version 5.3).

[4] = test system: PC-3 prostate cancer cells; assay: WST-1 cytotoxicity assay, PC-3; type: cell-based; details: 24 h treatment
Experimental: (§6) Prostate cancer cells were treated with enigmol or analogue for 24 h, and cytotoxicity was assessed by WST-1 assay. cLogPs were calculated with QuikProp on Maestro.

[5] = test system: LNCaP prostate cancer cells; assay: WST-1 cytotoxicity assay, LNCaP; type: cell-based; details: Homo sapiens, 24 h treatment
Experimental: as §6

[6] = test system: P. falciparum chloroquine resistant (CQ-R) W2 strain; assay: [3H]-labeled hypoxanthine uptake assay, P. falciparum W2; type: cell-based; details: Plasmodium falciparum
Excerpt: as §1, §2, §3, §4, §5

[7] = test system: P. falciparum W2 strain parasites; assay: Morphological changes and parasitemia upon incubation, Giemsa-stained thin blood smears; type: cell-based
Experimental: Upon preliminary examination, morphological changes were detected in the P. falciparum W2 strain parasites after incubation of the cultures with N-Methylenigmol (ESPD-507). The effect was evident between 28 h and 48 h of incubation, with a quantitatively high percentage of various aberrant or stunted forms of ring-stage and trophozoite-stage parasites found on Giemsa-stained thin blood smears (see black arrows in FIG. 2 at 28 h highlighting the presence of abundant ring-stage parasites and at 48 h, noting a vacuolated appearance of trophozoite-stage parasites). These findings can be contrasted with the normal growth, development, and maturation of the parasites without the drug.
By the 48 hour time point, the parasitemia increased from 1% to 5.8+/−0.5% with healthy appearing parasites in the control samples, as expected, while it remained at 1.3+/−0.3% and with aberrant parasite forms in the sample incubated with N-Methylenigmol (Table 2). The relative percentages of rings, trophozoites and schizonts in the cultures with and without the ESPD 507 compound were 41.9%, 39.2% and 18.9% versus 87.9%, 4.2% and 8.05, respectively.
Samples were removed every 4 h and thin blood smears were prepared, stained with modified Giemsa stain, and analyzed by light microscopy for morphological changes in growth and development. The modular incubator used was gassed and returned to 37° C. in less than 5 minutes to avoid delay in parasite growth.

sphingomyelin synthase = details: background section; read-out: IC50 sphingomyelin synthase activity in RBCs; cited from earlier work
[8] = D6, Table 1, compounds dissolved in 70% ethanol, not BSA-conjugated
[9] = D6, Table 2, compounds conjugated to BSA
[10] = W2, Table 1, compounds dissolved in 70% ethanol, not BSA-conjugated, read-out: IC50 W2
[11] = W2, Table 2, compounds conjugated to BSA, read-out: IC50 W2

SMILES | tumor-drug concentration ([1]; 3 mg/kg p.o. once daily) | tumor-drug concentration ([1]; 10 mg/kg p.o. once daily) | IC50 [2, 8] [µM] | IC50 [2, 9] [µM] | IC50 (P. knowlesi H strain) [µM] | volumes of distribution [3] | PK dose proportionality [3] | plasma half-lives [3] | IC50 [6, 10] [µM] | IC50 [6, 11] [µM] | other results
C[C@H](N)[C@@H](O)C[C@@H](O)CCCCCCCCCCCCC(F)(F)F [CF3-Enigmol, (2S,3S,5S)-2-amino-18,18,18-trifluorooctadecane-3,5-diol] | 1147 | 9004 | – | – | – | – | – | – | – | – | –
CCCCCCCCCCCCCCCC(=O)NC(CN1CCOCC1)C(O)c1ccccc1 (stereo not drawn) [threo-PPMP, phenyl-2-palmitoylamino-3-morpholino-1-propanol] | – | – | – | – | – | – | – | – | – | – | IC50 (sphingomyelin synthase): 0.85 µM

Second part, led by results:

tumor-drug concentration ([1]; 3 mg/kg p.o. once daily) | tumor-drug concentration ([1]; 10 mg/kg p.o. once daily) | IC50 [2, 8] [µM] | IC50 [2, 9] [µM] | IC50 (P. knowlesi H strain) [µM] | volumes of distribution [3] | PK dose proportionality [3] | plasma half-lives [3] | IC50 [6, 10] [µM] | IC50 [6, 11] [µM] | SMILES | other results
317 | 1565 | 12.6 ± 2.4 | 5.3 ± 1 | 10.5 ± 0.38 | large | dose proportional | long | 7.37 ± 1.5 | 9.2 ± 2 | CCCCCCCCCCCCC[C@H](O)C[C@H](O)[C@H](C)N [ESPD-0500, (2S,3S,5S)-2-aminooctadecane-3,5-diol] | Kp at 5 day ([3]; male, mouse, red blood cells (RBC) relative to plasma, po, 30 mg/kg, 30 mg/kg orally once per day, after 5th day of dosing, read-out: drug concentrations in RBCs relative to plasma levels): ~3; plasma levels increase from accumulation ([3]; 30 mg/kg orally once per day, after 5th day of dosing): about 30%; IC50 [4]: 10 µM; IC50 [5]: 13 µM; IC50 ([6]; W2, text b101, summary over W2 and D6 strains, read-out: IC50 / anti-malarial activity on both W2 and D6 strains): 7 to 12 µM
– | – | 4.7 ± 0.1 | 1.7 ± 1 | 1.72 ± 0.01 | large | dose proportional | long | 1.58 ± 0.13 | 0.9 ± 0.35 | CCCCCCCCCCCCC[C@H](O)C[C@H](O)[C@H](C)NC [ESPD-0507, N-Methylenigmol] | parasitemia ([7]; 48 hour time point, start 1%, compound at 546.94 ng/mL): 1.3+/−0.3%; relative percentage of rings ([7]; culture with compound, 48 h): 41.9%; relative percentage of schizonts ([7]; culture with compound, 48 h): 18.9%; relative percentage of trophozoites ([7]; culture with compound, 48 h): 39.2%; IC50 ([6]; W2, text b183, 546.94 ng/mL used for the morphology study, W2, read-out: IC50): 1.73 µM
– | – | – | 2.5 ± 0.1 | – | – | – | – | – | 2.6 ± 1.5 | CCCCCCCCCCCCC[C@H](O)CC(=O)C(C)(C)N [ESPD-0562, (S)-2-amino-5-hydroxy-2-methyloctadecan-3-one] | melting point: 31 to 33 °C
